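Dose response: 5 concentrations. Exposure: 48 h. Format: 96-well plates. Endpoint: linear interpolation; highest concentration if not reached. GI50 is the concentration that inhibits growth by half. TGI is the concentration that stops growth completely.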
How the values were obtained:
Test in all cases: NCI-60 cell line screen, 48 h
[1] = system: 786-0 renal
[2] = system: BT-549 breast
[3] = system: CAKI-1 renal
[4] = system: HCT-116 colon
[5] = system: K-562 leukemia
[6] = system: KM12 colon
[7] = system: MALME-3M melanoma
[8] = system: MCF7 breast
[9] = system: MOLT-4 leukemia
[10] = system: NCI-H23 lung
[11] = system: SK-MEL-2 melanoma

Compound	TGI [1] [µM]	TGI [2] [µM]	TGI [3] [µM]	TGI [4] [µM]	TGI [5] [µM]	TGI [6] [µM]	TGI [7] [µM]	TGI [8] [µM]	TGI [9] [µM]	TGI [10] [µM]	TGI [11] [µM]	GI50 [2] [µM]	GI50 [3] [µM]	GI50 [9] [µM]	GI50 [11] [µM]	GI50 [7] [µM]	GI50 [4] [µM]	GI50 [5] [µM]	GI50 [6] [µM]	GI50 [8] [µM]
Clc1cc(OCc2nn3c(Cc4ccccc4)nnc3s2)c(Cl)cc1OCc1nn2c(Cc3ccccc3)nnc2s1	> 100	95.9	> 100	> 100	24.2	> 100	> 100	> 100	19.8	> 100	> 100	–	–	–	–	–	–	–	–	–
c1csc(-c2ccc(CNc3c4ccccc4nc4ccccc34)cc2)c1	–	14.1	5.61	–	–	–	–	–	3.74	–	4.79	3.87	1.46	1.32	2.11	–	–	–	–	–
CSCC(CO)NC(=O)/C=C/c1c(C)[nH]c(=O)[nH]c1=O (configuration not stated)	–	–	> 87.5	> 875	> 875	> 875	> 875	> 609	> 875	> 875	> 875	–	–	–	–	–	–	–	–	–
Cc1cccc2c1Sc1ccccc1C2NC(=O)CN(C)C (configuration not stated)	–	–	–	> 100	> 100	–	–	–	> 100	> 100	–	–	–	–	–	–	–	–	–	–
O=C1C(c2c(O)[nH]c3ccc(Cl)cc23)=Nc2ccccc21	3.9	> 100	> 71.6	5.18	> 100	> 100	> 58.4	> 22	> 100	40.1	> 26.3	–	–	–	–	–	–	–	–	–
O=S(O)CCCSSSCCCS(=O)O	–	–	–	> 100	> 100	> 100	> 100	–	> 100	> 100	> 100	–	–	–	–	–	–	–	–	–
Cc1ccc(C(C)C)c(OCC(=O)N/N=C/c2c[nH]c3ccc(Br)cc23)c1	12.6	18.7	11.5	11	11.4	6.3	21.8	11.2	14.2	14.2	7.22	–	–	–	–	–	–	–	–	–
CC1(C)N=C(c2ccccc2)SC12S[C@@H]1CCCC[C@H]1S2	–	> 100	> 100	> 100	> 100	> 100	> 100	> 100	> 100	31.3	> 100	–	–	–	–	–	–	–	–	–
CN(C)c1cccc(OC(=O)NCCCl)c1	–	–	> 100	> 100	> 100	> 100	> 100	> 100	> 100	> 100	> 100	–	–	–	–	> 100	–	–	–	–
O=C(Sc1n[nH]c(=O)[nH]c1=O)c1cccc2nc3ccccc3nc12	> 100	> 100	> 100	> 100	> 100	> 100	24.8	> 100	> 100	26.8	> 100	–	–	–	–	–	–	–	–	–
CN(c1ccccc1)c1nc(=[N+]2CCCC2)ss1	> 100	–	> 100	> 100	> 100	> 100	> 100	–	> 100	–	> 100	–	–	–	–	–	–	–	–	–
c1ccc2c(c1)SP1Sc3ccccc3P21 (configuration not stated)	–	–	–	> 100	> 100	> 100	> 100	> 100	> 100	> 100	> 100	–	–	–	–	–	–	–	–	–
NNC(=O)c1cc([N+](=O)[O-])ccc1NC(=O)C12CC3CC(CC(C3)C1)C2	> 100	> 100	> 100	> 100	> 100	> 100	56.1	> 100	> 100	> 100	–	–	–	–	–	–	–	–	–	–
COc1cc(NCCC(=O)O)c2ncccc2c1	> 100	> 100	–	> 100	> 100	–	> 100	–	> 100	> 100	> 100	–	–	–	–	–	–	–	–	–
Cc1ccc(Nc2nc(=O)c3c([nH]c4ccccc43)s2)cc1	27.6	33.5	24.5	–	> 100	16.2	26.8	–	> 100	–	31.3	–	–	–	–	–	–	–	–	–
S=c1[nH]n2c(COc3ccc(Cl)cc3)nnc2s1	> 100	–	> 100	> 100	> 100	> 100	> 100	> 100	> 100	> 100	> 100	–	–	–	–	–	–	–	–	–
c1ccc2c(c1)SCCc1cn[nH]c1-2	–	–	> 100	> 100	> 100	> 100	> 100	> 100	> 100	> 100	> 100	–	–	–	–	–	–	–	–	–
COC(=O)c1sc2c(c1C(=O)OC)C(=NC(C)(C)C)SC2=NC(C)(C)C	30.4	35.4	32.6	30.5	43.3	33.8	37.8	33.1	31.8	34.5	33.1	–	–	–	–	–	–	–	–	–
N#C/C(=C\c1ccc([N+](=O)[O-])o1)c1n[nH]c(Cc2ccccc2)n1	3.85	8.46	3.96	0.668	> 22.3	6.69	4.4	7.05	> 100	2.89	4.34	–	–	–	–	–	–	–	–	–
COCCNCc1ccc(-c2cc3nccc(Oc4ccc(NC(=O)C5(C(=O)Nc6ccc(F)cc6)CC5)cc4F)c3s2)nc1	–	–	4.83	3.92	1.83	2.95	–	3.58	4.26	–	3.6	–	2.08	1.46	1.82	–	1.78	0.252	0.0411	1.22
CC[C@@H]([C@H](O)c1ccccc1Cl)[N+](=O)[O-]	> 100	> 100	> 100	> 100	–	> 100	–	> 100	–	> 100	> 100	–	–	–	–	–	–	–	–	–

Source: PubChem BioAssay (NCI)
